Experimental data taken from patent US20250026743A1, “HETEROARYL-LINKED ANALOGS AS MGLU5 NEGATIVE ALLOSTERIC MODULATORS AND METHODS OF MAKING AND USING THE SAME” (Vanderbilt University, priority 2021, published 2025).
Like-named read-outs stand apart in the source and are kept apart here.

Target: T1, hmGlu5 (Homo sapiens, UniProt P41594)
T1 construct: expressed in transfected cells; host or cells: HEK 293A
Assay: mGlu5 Ca2+ flux assay in HEK 293A cells (negative allosteric modulation of glutamate EC80 response)
Format: cell-based
Details: for remaining activity at 30 µM: HEK293-A, read-out: hmGlu5 NAM Emin (%)
How it was run: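 HEK 293A cells stably expressing rat or human mGlu5, Fluo-4 AM loaded; compound added 2.3 min before glutamate EC20, then EC80; Ca2+ fluorescence peak amplitudes (F/F0) normalised to glutamate max. IC50 from 4-parameter logistic fit, 10-point 1:3 curves, top 30 μM; partial NAMs plateau above 10% Glu Max.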

[1] = HEK 293A cells, Ca2+ flux, glutamate EC80, >10,000 = decrease without plateau, read-out: hmGlu5 NAM IC50

T1 sequence (P41594 21-1212): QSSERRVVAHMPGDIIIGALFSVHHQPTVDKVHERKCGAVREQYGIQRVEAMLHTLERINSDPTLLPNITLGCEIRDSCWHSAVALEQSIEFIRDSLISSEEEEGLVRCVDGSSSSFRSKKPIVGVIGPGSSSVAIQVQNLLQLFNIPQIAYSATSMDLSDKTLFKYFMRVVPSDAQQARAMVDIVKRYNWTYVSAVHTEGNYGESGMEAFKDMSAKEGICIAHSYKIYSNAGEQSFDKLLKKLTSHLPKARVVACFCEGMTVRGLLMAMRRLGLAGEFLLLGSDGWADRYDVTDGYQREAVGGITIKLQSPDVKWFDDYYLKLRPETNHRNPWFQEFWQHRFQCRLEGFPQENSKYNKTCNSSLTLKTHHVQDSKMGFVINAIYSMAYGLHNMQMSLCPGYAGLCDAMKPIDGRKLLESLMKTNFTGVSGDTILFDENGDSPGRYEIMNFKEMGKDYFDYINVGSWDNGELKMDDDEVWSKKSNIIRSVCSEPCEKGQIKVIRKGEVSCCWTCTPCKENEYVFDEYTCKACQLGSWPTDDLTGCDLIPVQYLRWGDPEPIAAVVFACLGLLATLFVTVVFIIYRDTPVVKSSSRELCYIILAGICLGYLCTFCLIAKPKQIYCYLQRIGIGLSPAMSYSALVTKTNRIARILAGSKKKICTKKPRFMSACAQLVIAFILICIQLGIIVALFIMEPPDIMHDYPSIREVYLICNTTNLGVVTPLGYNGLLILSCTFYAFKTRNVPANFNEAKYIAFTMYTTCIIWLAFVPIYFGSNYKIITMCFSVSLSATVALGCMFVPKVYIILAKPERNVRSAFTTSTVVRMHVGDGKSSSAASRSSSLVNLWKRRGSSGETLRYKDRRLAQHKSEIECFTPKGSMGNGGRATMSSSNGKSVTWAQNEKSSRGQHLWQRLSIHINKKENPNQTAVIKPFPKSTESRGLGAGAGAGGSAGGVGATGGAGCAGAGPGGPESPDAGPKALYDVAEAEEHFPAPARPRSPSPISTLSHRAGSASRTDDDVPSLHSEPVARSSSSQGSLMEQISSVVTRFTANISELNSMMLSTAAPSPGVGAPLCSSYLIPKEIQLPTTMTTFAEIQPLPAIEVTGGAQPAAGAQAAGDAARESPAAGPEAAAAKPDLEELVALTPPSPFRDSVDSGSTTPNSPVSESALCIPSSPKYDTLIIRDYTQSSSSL

| Compound | remaining activity at 30 µM (% Glu max at 30 μM) | IC50 [1] | remaining activity at 30 µM | IC50 |
| --- | --- | --- | --- | --- |
| COc1c(-c2cnccc2C)cc(-c2nc(-c3ccc(F)cn3)no2)nc1C [Compound 13, 3-(5-fluoropyridin-2-yl)-5-(5′-methoxy-4,6′-dimethyl-[3,4′-bipyridin]-2′-yl)-1,2,4-oxadiazole] | 2% | 482 nM |  |  |
| Cc1ccncc1-c1cc(-c2noc(-c3ccc(F)cn3)n2)nc(C)c1F [Compound 5, 3-(5′-fluoro-4,6′-dimethyl-[3,4′-bipyridin]-2′-yl)-5-(5-fluoropyridin-2-yl)-1,2,4-oxadiazole] | 3% | 98 nM |  |  |
| Cc1nc(-c2nnc(-c3ccccn3)o2)cc(-c2cncc(F)c2)c1F [Compound 79, 2-(5,5′-difluoro-6′-methyl-[3,4′-bipyridin]-2′-yl)-5-(pyridin-2-yl)-1,3,4-oxadiazole] |  | 673 nM | 2% |  |
| Cc1nc(-c2noc(-c3ccc(F)cn3)n2)cc(-c2ccc(C(F)(F)F)nc2)c1F [Compound 29, 3-(5′-fluoro-6′-methyl-6-(trifluoromethyl)-[3,4′-bipyridin]-2′-yl)-5-(5-fluoropyridin-2-yl)-1,2,4-oxadiazole] | 37% | 1720 nM |  |  |
| Cc1cccc(-c2nnc(-c3cc(-c4cncc(F)c4)c(F)c(C)n3)o2)n1 [Compound 58, 2-(5,5′-difluoro-6′-methyl-[3,4′-bipyridin]-2′-yl)-5-(6-methylpyridin-2-yl)-1,3,4-oxadiazole] |  | > 10000 nM | 31% |  |
| Cc1nc(-c2nnc(-c3ccncc3)o2)cc(-c2cncc(F)c2)c1F [Compound 81, 2-(5,5′-difluoro-6′-methyl-[3,4′-bipyridin]-2′-yl)-5-(pyridin-4-yl)-1,3,4-oxadiazole] |  |  | 55% | > 10000 nM |
| Cc1nc(-c2nc(-c3ccc(F)cn3)no2)cc(-c2cnn(C(F)F)c2)c1F [Compound 9, 5-(4-(1-(difluoromethyl)-1H-pyrazol-4-yl)-5-fluoro-6-methylpyridin-2-yl)-3-(5-fluoropyridin-2-yl)-1,2,4-oxadiazole] | 2% | 328 nM |  |  |
| Cc1csc(-c2nc(-c3cc(-c4cncc(F)c4)c(F)c(C)n3)no2)n1 [Compound 16, 3-(5,5′-difluoro-6′-methyl-[3,4′-bipyridin]-2′-yl)-5-(4-methylthiazol-2-yl)-1,2,4-oxadiazole] | 9% | 613 nM |  |  |
| Fc1ccc(-c2nc(-c3cc(-c4cncc(F)c4)cc(C4CCC4)n3)no2)nc1 [Compound 39, 3-(6′-cyclobutyl-5-fluoro-[3,4′-bipyridin]-2′-yl)-5-(5-fluoropyridin-2-yl)-1,2,4-oxadiazole] | 58% | 1910 nM |  |  |
| Cc1nc(-c2noc(-c3ccc(F)cn3)n2)cc(-c2ccc(Cl)nc2)c1F [Compound 34, 3-(6-chloro-5′-fluoro-6′-methyl-[3,4′-bipyridin]-2′-yl)-5-(5-fluoropyridin-2-yl)-1,2,4-oxadiazole] | 8% | 577 nM |  |  |
| Cc1ccncc1-c1cc(-c2noc(-c3ccccn3)n2)nc(C)c1F [Compound 19, 3-(5′-fluoro-4,6′-dimethyl-[3,4′-bipyridin]-2′-yl)-5-(pyridin-2-yl)-1,2,4-oxadiazole] | 2% | 233 nM |  |  |
| Cc1ccncc1-c1cc(-c2noc(-c3ncccc3F)n2)ncc1F [Compound 2, 3-(5′-fluoro-4-methyl-[3,4′-bipyridin]-2′-yl)-5-(3-fluoropyridin-2-yl)-1,2,4-oxadiazole] | 25% | 2630 nM |  |  |
| Cc1nc(-c2noc(C3CCOCC3)n2)cc(-c2cncc(F)c2)c1F [Compound 37, 3-(5,5′-difluoro-6′-methyl-[3,4′-bipyridin]-2′-yl)-5-(tetrahydro-2H-pyran-4-yl)-1,2,4-oxadiazole] | 54% | > 10000 nM |  |  |
| Cc1ccncc1-c1cc(-c2noc(-c3ccc(Cl)cn3)n2)nc(C)c1F [Compound 26, 5-(5-chloropyridin-2-yl)-3-(5′-fluoro-4,6′-dimethyl-[3,4′-bipyridin]-2′-yl)-1,2,4-oxadiazole] | 2% | 575 nM |  |  |
| Cc1ccncc1-c1cc(-c2nc(-c3ccc(F)cn3)no2)ncc1F [Compound 4, 5-(5′-fluoro-4-methyl-[3,4′-bipyridin]-2′-yl)-3-(5-fluoropyridin-2-yl)-1,2,4-oxadiazole] | 1% | 166 nM |  |  |
| Cc1nc(-c2noc(-c3ccc(F)cn3)n2)cc(-c2cc(F)cnc2Cl)c1F [Compound 32, 3-(2-chloro-5,5′-difluoro-6′-methyl-[3,4′-bipyridin]-2′-yl)-5-(5-fluoropyridin-2-yl)-1,2,4-oxadiazole] | 3% | 359 nM |  |  |
| Cc1nc(-c2noc(-c3cccc(F)c3)n2)cc(-c2cncc(F)c2)c1F [Compound 38, 3-(5,5′-difluoro-6′-methyl-[3,4′-bipyridin]-2′-yl)-5-(3-fluorophenyl)-1,2,4-oxadiazole] | 14% | 2410 nM |  |  |

Continued, in another order:

| remaining activity at 30 µM (% Glu max at 30 μM) | IC50 [1] | Compound | remaining activity at 30 µM | IC50 |
| --- | --- | --- | --- | --- |
| 34% | 5500 nM | Cc1nc(-c2noc(-c3ccccc3F)n2)cc(-c2cncc(F)c2)c1F [Compound 47, 3-(5,5′-difluoro-6′-methyl-[3,4′-bipyridin]-2′-yl)-5-(2-fluorophenyl)-1,2,4-oxadiazole] |  |  |
| 21% | > 10000 nM | Cc1cc(O[C@@H]2CCOC2)cc(-c2noc(-c3ccc(F)cn3)n2)n1 [Compound 112, (R)-5-(5-fluoropyridin-2-yl)-3-(6-methyl-4-((tetrahydrofuran-3-yl)oxy)pyridin-2-yl)-1,2,4-oxadiazole] |  |  |
| 2% | 375 nM | Cc1ccncc1-c1cc(-c2nnc(-c3ccc(F)cn3)o2)nc(C)c1F [Compound 42, 2-(5′-fluoro-4,6′-dimethyl-[3,4′-bipyridin]-2′-yl)-5-(5-fluoropyridin-2-yl)-1,3,4-oxadiazole] |  |  |
| 2% | 183 nM | Cc1ccncc1-c1cc(-c2n[nH]c(-c3ccc(F)cn3)n2)nc(C)c1F [Compound 97, 3′-fluoro-6′-(5-(5-fluoropyridin-2-yl)-1H-1,2,4-triazol-3-yl)-2′,4-dimethyl-3,4′-bipyridine] |  |  |
| 3% | 206 nM | Cc1nc(-c2noc(-c3ccc(F)cn3)n2)cc(-c2cc(Cl)cc(C#N)c2)c1F [Compound 70, 3-chloro-5-(3-fluoro-6-(5-(5-fluoropyridin-2-yl)-1,2,4-oxadiazol-3-yl)-2-methylpyridin-4-yl)benzonitrile] |  |  |
| 3% | 3600 nM | Cc1ccncc1-c1cc(-c2noc(C(F)c3ccccc3)n2)nc(C)c1F (stereo not drawn) [Compound 89, 5-(fluoro(phenyl)methyl)-3-(5′-fluoro-4,6′-dimethyl-[3,4′-bipyridin]-2′-yl)-1,2,4-oxadiazole] |  |  |
| 2% | 155 nM | Cc1ccncc1-c1cc(-c2noc(-c3cc(Cl)ccn3)n2)nc(C)c1F [Compound 91, 5-(4-chloropyridin-2-yl)-3-(5′-fluoro-4,6′-dimethyl-[3,4′-bipyridin]-2′-yl)-1,2,4-oxadiazole] |  |  |
| 27% | > 10000 nM | Cc1ccncc1-c1cc(-c2noc(C(C)c3ccccc3)n2)nc(C)c1F (stereo not drawn) [Compound 95, 3-(5′-fluoro-4,6′-dimethyl-[3,4′-bipyridin]-2′-yl)-5-(1-phenylethyl)-1,2,4-oxadiazole] |  |  |
| 1% | 82 nM | Cc1nc(-c2n[nH]c(-c3ccccc3F)n2)cc(-c2cncc(F)c2)c1F [Compound 98, 3′,5-difluoro-6′-(5-(2-fluorophenyl)-1H-1,2,4-triazol-3-yl)-2′-methyl-3,4′-bipyridine] |  |  |
| 1% | 359 nM | Fc1ccc(-c2nnc(-c3cc(-c4cncc(F)c4)cc(C(F)F)n3)o2)nc1 [Compound 84, 2-(6′-(difluoromethyl)-5-fluoro-[3,4′-bipyridin]-2′-yl)-5-(5-fluoropyridin-2-yl)-1,3,4-oxadiazole] |  |  |
| 39% | > 10000 nM | Cc1ccc(-c2nc(-c3cc(-c4cnccc4C)c(F)c(C)n3)no2)nc1 [Compound 64, 3-(5′-fluoro-4,6′-dimethyl-[3,4′-bipyridin]-2′-yl)-5-(5-methylpyridin-2-yl)-1,2,4-oxadiazole] |  |  |
| 50% | > 10000 nM | Cc1ccncc1-c1cc(-c2noc(Cc3ccnn3C)n2)nc(C)c1F [Compound 56, 3-(5′-fluoro-4,6′-dimethyl-[3,4′-bipyridin]-2′-yl)-5-((1-methyl-1H-pyrazol-5-yl)methyl)-1,2,4-oxadiazole] |  |  |
| 2% | 149 nM | Fc1ccc(-c2noc(-c3cc(-c4cncc(F)c4)cc(C(F)F)n3)n2)nc1 [Compound 78, 5-(6′-(difluoromethyl)-5-fluoro-[3,4′-bipyridin]-2′-yl)-3-(5-fluoropyridin-2-yl)-1,2,4-oxadiazole] |  |  |
| 2% | 387 nM | Cc1cc(O[C@@H]2CCOC2)cc(-c2noc(-c3nc(C)cs3)n2)n1 [Compound 106, (R)-3-(6-methyl-4-((tetrahydrofuran-3-yl)oxy)pyridin-2-yl)-5-(4-methylthiazol-2-yl)-1,2,4-oxadiazole] |  |  |
| 13% | > 10000 nM | Cc1csc(-c2noc(-c3cc(-c4cnccc4C)c(F)c(C)n3)n2)n1 [Compound 105, 5-(5′-fluoro-4,6′-dimethyl-[3,4′-bipyridin]-2′-yl)-3-(4-methylthiazol-2-yl)-1,2,4-oxadiazole] |  |  |
| 1% | 766 nM | Cc1cc(CC2CCOC2)cc(-c2noc(-c3ccc(F)cn3)n2)n1 (stereo not drawn) [Compound 86, 5-(5-fluoropyridin-2-yl)-3-(6-methyl-4-((tetrahydrofuran-3-yl)methyl)pyridin-2-yl)-1,2,4-oxadiazole] |  |  |
